Measured values reported in PMC10804683, “Identification of the pyridoxal 5′‐phosphate allosteric site in human pyridox(am)ine 5′‐phosphate oxidase” (Protein Science : A Publication of the Protein Society, 2024).
Substitutions are numbered along the chain they refer to.

How the values were obtained:
human PNPO wild type = biological target: T1, human PNPO wild type (Homo sapiens, UniProt Q9NVS9)
T1 sequence (Q9NVS9 1-261): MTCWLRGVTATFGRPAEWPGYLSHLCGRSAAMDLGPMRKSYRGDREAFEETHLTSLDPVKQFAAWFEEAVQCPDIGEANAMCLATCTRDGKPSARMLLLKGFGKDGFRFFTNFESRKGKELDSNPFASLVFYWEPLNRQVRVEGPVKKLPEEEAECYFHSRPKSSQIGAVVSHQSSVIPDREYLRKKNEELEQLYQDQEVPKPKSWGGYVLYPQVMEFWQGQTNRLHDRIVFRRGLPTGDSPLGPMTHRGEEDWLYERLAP

human PNPO F48A variant = biological target: T2, human PNPO F48A variant (Homo sapiens, UniProt Q9NVS9, F48A); experiment: PMP oxidation kinetics, F48A variant; conditions: 50 mM Tris–HCl pH 7.6, 37°C, 2 μM enzyme
T2 sequence (Q9NVS9 1-261 F48A): T1 sequence (Q9NVS9 1-261) with F48A

PMP oxidation kCAT (human PNPO wild type; 50 mM Tris–HCl pH 7.6, 37°C, 2 μM enzyme): 0.135 ± 0.00283 s⁻¹ | KM for PMP relative to KM for PNP (human PNPO wild type; Tris–HCl pH 7.6, 37°C): 25 fold | PMP oxidation kCAT (human PNPO F48A variant): 0.1785 ± 0.003 s⁻¹
Compound: Cc1ncc(COP(=O)(O)O)c(CN)c1O [PMP, pyridoxamine 5′‐phosphate]
